How the values were obtained:
[1] = test system: Pancreas_MiaPaCa2; assay: Cell proliferation assay (ATPlite), MiaPaCa2; format: cell-based; details: Homo sapiens, MIA PaCa-2; TABLE C; 72 hours, 0.5% fetal bovine serum, ATP content; read-out: IC50 grading, Pancreas_MiaPaCa2
Description: (§1) A representative number of compounds were assayed against several different cell lines using the cell proliferation assay:
(§2) Cell Proliferation Assay:
(§3) Cancer cell lines were plated at 5,000 to 10,000 per well in 96-well flatted bottomed plates with various concentration of compounds. The cells were incubated with compounds for 72 hours in the presence of 0.5% of fetal bovine serum. Growth inhibition was accessed by adenosine triphosphate (ATP) content assay using Perkin Elmer ATPlite kit. ATPlite is an ATP monitoring system based on firefly luciferase. Briefly, 25 μl of mammalian cell lysis solution was added to 50 μl of phenol red-free culture medium per well to lyse the cells and stabilize the ATP. 25 μl of substrate solution was then added to the well and subsequently the luminescence was measured.

[2] = test system: Pancreas_PANC1; assay: Cell proliferation assay (ATPlite), PANC1; format: cell-based; details: Homo sapiens, PANC-1; TABLE C; 72 hours, 0.5% fetal bovine serum, ATP content; read-out: IC50 grading, Pancreas_PANC1
Description: as §1, §2, §3

[3] = test system: Pancreas_BxPC3; assay: Cell proliferation assay (ATPlite), BxPC3; format: cell-based; details: Homo sapiens, BXPC-3; TABLE C; 72 hours, 0.5% fetal bovine serum, ATP content; read-out: IC50 grading, Pancreas_BxPC3
Description: as §1, §2, §3

[4] = test system: Pancreas_CFPAC; assay: Cell proliferation assay (ATPlite), CFPAC; format: cell-based; details: TABLE C; 72 hours, 0.5% fetal bovine serum, ATP content; read-out: IC50 grading, Pancreas_CFPAC
Description: as §1, §2, §3

[5] = test system: Pancreas_HPAC; assay: Cell proliferation assay (ATPlite), HPAC; format: cell-based; details: Homo sapiens, TABLE C, 72 hours, 0.5% fetal bovine serum, ATP content, read-out: IC50 grading, Pancreas_HPAC
Description: as §1, §2, §3

[6] = test system: Colon_HCT116 (HCT116, colon cancer); assay: Cell proliferation assay (ATPlite), HCT116; format: cell-based; details: Homo sapiens, HCT-116; TABLE C; 72 hours, 0.5% fetal bovine serum, ATP content; read-out: IC50 grading, Colon_HCT116
Description: as §1, §2
as §3, with “The cells were incubated with compounds for 72 hours in the presence of 0.5% of fetal bovine serum.” left out

[7] = test system: HDAC (HeLa nuclear extract); assay: HDAC fluorimetric assay kit (AK-500, Biomol), HeLa nuclear extract; format: biochemical; details: TABLE 1-B, Section 1 compounds; read-out: HDAC (IC50 grading)
Description: (§4) HDAC inhibitors were screened using an HDAC fluorimetric assay kit (AK-500, Biomol, Plymouth Meeting, Pa.). […] Each assay was setup as follows: Defrosted all kit components and kept on ice until use. […] Prepared dilutions of Trichostatin A (TSA, positive control) and tested compounds in assay buffer (5× of final concentration). Diluted Fluor de Lys™ Substrate in assay buffer to 100 uM (50 fold=2× final). Diluted Fluor de Lys™ developer concentrate 20-fold (e.g. 50 μl plus 950 μl Assay Buffer) in cold assay buffer. Second, diluted the 0.2 mM Trichostatin A 100-fold in the 1× Developer (e.g. 10 μl in 1 ml; final Trichostatin A concentration in the 1× Developer=2 μM; final concentration after addition to HDAC/Substrate reaction=1 μM). Added Assay buffer, diluted trichostatin A or test inhibitor to appropriate wells of the microtiter plate. Added diluted HeLa extract or other HDAC sample to all wells except for negative controls.
HDAC inhibitors were screened using an HDAC fluorimetric assay kit (AK-500, Biomol, Plymouth Meeting, Pa.).
Each assay was setup as follows: Defrosted all kit components and kept on ice until use. […] Prepared dilutions of Trichostatin A (TSA, positive control) and tested compounds in assay buffer (5× of final concentration). Diluted Fluor de Lys™ Substrate in assay buffer to 100 uM (50 fold=2× final). Diluted Fluor de Lys™ developer concentrate 20-fold (e.g. 50 μl plus 950 μl Assay Buffer) in cold assay buffer. Second, diluted the 0.2 mM Trichostatin A 100-fold in the 1× Developer (e.g. 10 μl in 1 ml; final Trichostatin A concentration in the 1× Developer=2 μM; final concentration after addition to HDAC/Substrate reaction=1 μM). Added Assay buffer, diluted trichostatin A or test inhibitor to appropriate wells of the microtiter plate. Added diluted HeLa extract or other HDAC sample to all wells except for negative controls.
HDAC inhibitors is screened using an HDAC fluorimetric assay kit (AK-500, Biomol, Plymouth Meeting, Pa.).
Each assay is setup as follows: Defrost all kit components and kept on ice until use. […] Prepare dilutions of Trichostatin A (TSA, positive control) and tested compounds in assay buffer (5× of final concentration). Dilute Fluor de Lys™ Substrate in assay buffer to 100 uM (50 fold=2× final). Dilute Fluor de Lys™ developer concentrate 20-fold (e.g. 50 μl plus 950 μl Assay Buffer) in cold assay buffer. Second, dilute the 0.2 mM Trichostatin A 100-fold in the 1× Developer (e.g. 10 μl in 1 ml; final Trichostatin A concentration in the 1× Developer=2 μM; final concentration after addition to HDAC/Substrate reaction=1 μM). Add Assay buffer, dilute trichostatin A or test inhibitor to appropriate wells of the microtiter plate. Add diluted HeLa extract or other HDAC sample to all wells except for negative controls.
as §4, with “assay buffer)” for “Assay Buffer)”, “assay” for “Assay”
CDK2/cyclinE: 0.5 nM CDK2/cyclinE and 5 μM Histon H1 are in the reaction buffer plus 1 μM ATP and 1% DMSO final. Incubate for 2 hours at room temperature. […] Incubate for 2 hours at room temperature.

Compound	melting point	IC50 [1]	IC50 [2]	IC50 [3]	IC50 [4]	IC50 [5]	IC50 [7]	further results
Nc1ncnc2c1nc(Sc1cc3c(cc1Br)OCO3)n2CC(=O)NO [Compound 1, 2-(6-amino-8-(6-bromobenzo[d][1,3]dioxol-5-ylthio)-9H-purin-9-yl)-N-hydroxyacetamide]	230 °C (dec.)							
CC(C)(C)c1cnc(CSc2cnc(NC(=O)C3CCN(CCCC(=O)NO)CC3)s2)o1 [Compound 1, N-(5-((5-tert-butyloxazol-2-yl)methylthio)thiazol-2-yl)-1-(4-(hydroxyamino)-4-oxobutyl)piperidine-4-carboxamide]	176 to 180 °C							
CC(C)(C)c1cnc(CSc2cnc(NC(=O)C3CCN(CCCCCC(=O)NO)CC3)s2)o1 [Compound 3, N-(5-((5-tert-butyloxazol-2-yl)methylthio)thiazol-2-yl)-1-(6-(hydroxyamino)-6-oxohexyl)piperidine-4-carboxamide]	127 to 130 °C							
Cc1[nH]c(/C=C2\C(=O)Nc3ccc(F)cc32)c(C)c1C(=O)NCCCCCC(=O)NO [Compound 4, N-(5-(hydroxycarbamoyl)pentyl)5-((Z)-(5-fluoro-2-oxoindolin-3-ylidene)methyl)-2,4-dimethyl-1H-pyrrole-3-carboxamide]	209.7 °C (dec.)							
CN(C)CC[C@H](CSc1ccccc1)Nc1ccc(S(=O)(=O)NC(=O)c2ccc(N3CCN(Cc4ccccc4-c4ccc(Cl)cc4)CC3)c(NC(=O)CCCCC(=O)NO)c2)cc1[N+](=O)[O-] [Compound 8, (R)—N^1-(2-(4-((4′-Chlorobiphenyl-2-yl)methyl)piperazin-1-yl)-5-(4-(4-(dimethylamino)-1-(phenylthio)butan-2-ylamino)-3-nitrophenylsulfonylcarbamoyl)phenyl)-N^6-hydroxyadipamide]	150 °C							
C[C@@H](Nc1ncnc2[nH]c(-c3ccc(OCC(=O)NO)cc3)cc12)c1ccccc1 [Compound 17, (R)—N-hydroxy-2-(4-(4-(1-phenylethylamino)-7H-pyrrolo[2,3-d]pyrimidin-6-yl)phenoxy)acetamide]	116.8 to 126.8 °C							
O=C(CCCCCCOc1ccc2ncnc(Nc3ccc(F)c(Cl)c3)c2c1)NO [Compound 18]		100 to 1000 nM	100 to 1000 nM	100 to 1000 nM	100 to 1000 nM	1 to 10 µM		IC50 [6]: 100 to 1000 nM
Cc1nc(NCCCCCCC(=O)NO)cc(Nc2ncc(C(=O)Nc3c(C)cccc3Cl)s2)n1 [Compound 24, N-(2-chloro-6-methylphenyl)-2-(6-(7-(hydroxyamino)-7-oxoheptylamino)-2-methylpyrimidin-4-ylamino)thiazole-5-carboxamide]	150.7 °C (dec.)							
Nc1ccc(C(=O)NCCNC(=O)CCCC(=O)NO)cc1 [Compound 29, N-hydroxy-4-(2-(4-aminobenzamido)-ethylcarbamoyl)butanamide]	158.9 to 159.8 °C							
COc1cc2ncnc(Nc3ccc(F)c(Cl)c3)c2cc1NC(=O)CCCCCCC(=O)NO [Compound 40]		1000 to 10000 nM	1000 to 10000 nM	1000 to 10000 nM	1000 to 10000 nM	1 to 10 µM		
COc1cc2ncnc(Nc3ccc(F)c(Cl)c3)c2cc1OCCOc1ccc(/C=C/C(=O)NO)cc1 [Compound 66]		1000 to 10000 nM	1000 to 10000 nM	1000 to 10000 nM	> 10000 nM	1 to 10 µM		
COCCOc1cc2ncnc(Nc3ccc(F)c(Cl)c3)c2cc1NC(=O)CCCCCCC(=O)NO [Compound 70, N^1-(4-(3-chloro-4-fluorophenylamino)-7-(2-methoxyethoxy)quinazolin-6-yl)-N^8-hydroxyoctanediamide]		1000 to 10000 nM	1000 to 10000 nM	1000 to 10000 nM	1000 to 10000 nM	> 10 µM		
COc1cc2ncnc(N[C@H](C)c3ccccc3)c2cc1OCCCCCC(=O)NO [Compound 77, (R)—N-hydroxy-6-(7-methoxy-4-(1-phenylethylamino)quinazolin-6-yloxy)-hexanamide]		100 to 1000 nM	> 10000 nM	1000 to 10000 nM	1000 to 10000 nM	> 10 µM		
COc1cc2ncnc(N[C@H](C)c3ccccc3)c2cc1OCCCCCCC(=O)NO [Compound 79, (R)—N-hydroxy-7-(7-methoxy-4-(1-phenylethylamino)quinazolin-6-yloxy)heptanamide]		1000 to 10000 nM	1000 to 10000 nM	1000 to 10000 nM	1000 to 10000 nM	> 10 µM		
COc1cc2ncnc(NCc3ccccc3)c2cc1OCCCCCCC(=O)NO [Compound 85, 7-(4-(Benzylamino)-7-methoxyquinazolin-6-yloxy)-N-hydroxyheptanamide]		1000 to 10000 nM	1000 to 10000 nM	100 to 1000 nM	1000 to 10000 nM	1 to 10 µM		IC50 [6]: 100 to 1000 nM
COc1cc2ncnc(Nc3ccc(F)c(Cl)c3)c2cc1NC(=O)Nc1ccc(C(=O)NO)cc1 [Compound 94]							> 10000 nM	
COc1cc2ncnc(Nc3ccc(F)c(Cl)c3)c2cc1OCCCCCC(C(=O)NO)C(C)C (stereo not shown) [Compound 112]							> 10000 nM	
COc1cc2ncnc(Nc3ccc(F)c(Cl)c3)c2cc1OCCCOc1ccc(C(=O)NO)cc1 [Compound 202]							100 to 1000 nM	
COc1cc2ncnc(Nc3ccc(F)c(Cl)c3)c2cc1OCCCCOc1ccc(C(=O)NO)cc1 [Compound 203]							100 to 1000 nM	
COc1cc2ncnc(Nc3ccc(F)c(Cl)c3)c2cc1Oc1ccc(C#CCCC(=O)NO)cc1 [Compound 204]							1000 to 10000 nM	
C#Cc1cccc(Nc2ncnc3cc(O)c(OCCCCCCC(=O)NO)cc23)c1 [Compound 207]							< 100 nM	
C#Cc1cc(Nc2ncnc3cc(O)c(OCCCCCCC(=O)NO)cc23)ccc1O [Compound 208]							< 100 nM	
